The values below come from patent publication US9090593B2, “Bicyclic compounds as Pim inhibitors” (AMGEN INC., priority 2010, dated 2015).

Assay [1] deals with T1, full length recombinant Pim-3 protein (Homo sapiens, UniProt Q86V86).
T1 construct: by full length recombinant Pim-1, Pim-2, or Pim-3 protein; purchased Millipore (UK)
The experiment in a line: Pim-3 enzyme assay (HTRF, phosphorylation of biotinylated-BAD (S112) peptide). Format: biochemical. The conditions noted are these: read-out: Pim3 IC50. The method, boiled down: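 HTRF read-out, streptavidin-APC plus Eu-labelled anti-phospho-BAD (S112) antibody, measures BAD peptide phosphorylation by full-length recombinant Pim-3. Buffer: 60 mM Hepes pH 7.0, 2 mM DTT, 0.05% BSA; EDTA (3 mM) stop. Percent of control per well, IC50 by 4-parameter logistic fit.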
Background: In TR-FRET formats the signal depends on donor and acceptor labels being close together.

Assay [2] has as its target T2, Pim-2 stably transfected into the U2OS human osteogenic sarcoma line (Homo sapiens, UniProt Q9P1W9).
T2 construct: expressed in transfected cells; host or cells: U2OS human osteogenic sarcoma line
Briefly: Pim cell assay, phospho-BAD normalized against total BAD, U2OS stably transfected with Pim-2. Note: high dose 31.6 µM. Format: cell-based. The conditions noted are these: U2OS cells stably transfected with Pim-2, phospho-BAD; high dose […]; read-out: Pim2_Cell_IC50. Summed up: (§1)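 Read-out is phospho-BAD relative to total BAD, by MSD electrochemiluminescence on lysates, expressed as % phosphoprotein = (2×phospho)/(phospho+total)×100. Engineered U2OS lines carrying stably transfected Pim-1 or Pim-2 received 10-point compound dilutions at 0.3% final DMSO after overnight culture at 37 °C; DMSO-only wells served as high control.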

The target in assay [3] is T3, Pim-1 stably transfected into the U2OS human osteogenic sarcoma line (Homo sapiens, UniProt P11309).
T3 construct: expressed in transfected cells; host or cells: U2OS human osteogenic sarcoma line
T3 sequence (P11309 whole entry): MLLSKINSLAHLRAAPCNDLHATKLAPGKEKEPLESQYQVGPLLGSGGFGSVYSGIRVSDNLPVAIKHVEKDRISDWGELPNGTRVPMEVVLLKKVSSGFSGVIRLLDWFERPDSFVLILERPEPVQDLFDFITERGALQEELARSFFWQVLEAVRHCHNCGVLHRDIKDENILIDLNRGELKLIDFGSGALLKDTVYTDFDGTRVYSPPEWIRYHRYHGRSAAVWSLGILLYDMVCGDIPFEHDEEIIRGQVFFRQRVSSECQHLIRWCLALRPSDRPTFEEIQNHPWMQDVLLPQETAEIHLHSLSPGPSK
Briefly: Pim cell assay, phospho-BAD normalized against total BAD, U2OS stably transfected with Pim-1. Format: cell-based. The conditions noted are these: U2OS cells stably transfected with Pim-1, phospho-BAD; high dose […]; read-out: Pim1_Cell_IC50. Summed up:
as §1

The target of assay [4] is T4, full length recombinant Pim-2 protein (Homo sapiens, UniProt Q9P1W9).
T4 construct: by full length recombinant Pim-1, Pim-2, or Pim-3 protein; hexahistidine tag followed by a thrombin cleavage site (N); made in house; host or cells: Sf9 (baculovirus) or E. coli (pET28)
T4 sequence (Q9P1W9 whole entry): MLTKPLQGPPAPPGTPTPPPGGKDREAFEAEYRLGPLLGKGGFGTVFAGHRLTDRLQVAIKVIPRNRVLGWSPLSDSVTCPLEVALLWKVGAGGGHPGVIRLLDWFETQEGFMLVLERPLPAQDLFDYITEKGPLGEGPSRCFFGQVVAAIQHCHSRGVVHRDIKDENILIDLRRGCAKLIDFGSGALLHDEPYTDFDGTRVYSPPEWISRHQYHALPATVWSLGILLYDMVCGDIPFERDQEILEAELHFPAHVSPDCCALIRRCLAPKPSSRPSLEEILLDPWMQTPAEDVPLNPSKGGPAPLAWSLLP
The experiment in a line: Pim-2 enzyme assay (HTRF, phosphorylation of biotinylated-BAD (S112) peptide). Format: biochemical. The settings on record: enzyme assay, Pim-2; read-out: Pim2_IC50. The method, boiled down:
(§2)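 HTRF read-out: Eu-labelled anti-phospho-BAD (S112) antibody plus streptavidin-APC detect phosphorylated biotin-BAD peptide. Enzymes were full-length recombinant human Pim-1 and Pim-2; buffer 60 mM Hepes pH 7.0, 0.05% BSA, 2 mM DTT; reactions quenched with 3 mM EDTA. Percent-of-control data fitted to a 4-parameter logistic for IC50.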

The target of assay [5] is T5, full length recombinant Pim-1 protein (Homo sapiens, UniProt P11309).
T5 construct: by full length recombinant Pim-1, Pim-2, or Pim-3 protein; hexahistidine tag followed by a thrombin cleavage site (N); made in house; host or cells: Sf9 (baculovirus) or E. coli (pET28)
T5 sequence (P11309 whole entry): as the sequence (P11309 whole entry) above
Briefly: Pim-1 enzyme assay (HTRF, phosphorylation of biotinylated-BAD (S112) peptide). The format is biochemical. The conditions noted are these: enzyme assay, Pim-1; read-out: Pim_1_IC50. Summed up: as §2

SMILES strings stand for the structures.

T2 sequence (Q9P1W9 whole entry): as the sequence (Q9P1W9 whole entry) above

For `O=C(NC1CC1)c1cccc(-c2ccc3[nH]nc(-c4cncc(O[C@@H]5CCCNC5)n4)c3c2)c1` [Example 132, N-cyclopropyl-3-(3-(6-((3R)-3-piperidinyloxy)-2-pyrazinyl)-1H-indazol-5-yl)benzamide], the IC50 in assay [1] is 14 nM; in assay [2] it was 3050 nM; in assay [3], 245 nM; in assay [4], 14 nM; in assay [5], 8 nM.
Take `Fc1ccccc1-c1ccc2[nH]nc(-c3cncc(O[C@@H]4CCCNC4)n3)c2c1` [Example 133, 5-(2-fluorophenyl)-3-(6-((3R)-3-piperidinyloxy)-2-pyrazinyl)-1H-indazole]: the IC50 in assay [1] amounted to 6 nM; in assay [2], 7840 nM; in assay [3], 435 nM; in assay [4], 17 nM; in assay [5], 5 nM.
For the compound `c1cn2cc(-c3ccc4[nH]nc(-c5cncc(O[C@@H]6CCCNC6)n5)c4c3)ncc2n1` [Example 138, 6-(3-(6-((3R)-3-piperidinyloxy)-2-pyrazinyl)-1H-indazol-5-yl)imidazo[1,2-a]pyrazine], the IC50 was 14 nM in assay [1]; over 31600 nM in assay [2]; 921 nM in assay [3]; 185 nM in assay [4]; 5 nM in assay [5].
For `O=C(NC1CC1)c1ccc(F)c(-c2ccc3[nH]nc(-c4cncc(O[C@@H]5CCCNC5)n4)c3c2)c1` [Example 139, N-cyclopropyl-4-fluoro-3-(3-(6-((3R)-3-piperidinyloxy)-2-pyrazinyl)-1H-indazol-5-yl)benzamide], in that order: 12 nM, 3780 nM, 454 nM, 13 nM and 13 nM.
For the compound `FC(F)(F)c1cccc(-c2ccc3[nH]nc(-c4cncc(O[C@@H]5CCCNC5)n4)c3c2)n1` [Example 142, 3-(6-((3R)-3-piperidinyloxy)-2-pyrazinyl)-5-(6-(trifluoromethyl)-2-pyridinyl)-1H-indazole], the IC50 in assay [1] is 6 nM; in assay [2] it was over 31600 nM; in assay [3], 625 nM; in assay [4] it was 87 nM; in assay [5], 19 nM.
For `CC(C)Oc1cc(-c2ccc3[nH]nc(-c4cncc(O[C@@H]5CCCNC5)n4)c3c2)ccn1` [Example 143, 5-(2-(1-methylethoxy)-4-pyridinyl)-3-(6-((3R)-3-piperidinyloxy)-2-pyrazinyl)-1H-indazole], in that order: 25 nM, over 31600 nM, 873 nM, 34 nM and 5 nM.
`c1cc2[nH]nc(-c3cncc(O[C@@H]4CCCNC4)n3)c2cc1-c1cncc(NC2CC2)n1` [Example 158, N-cyclopropyl-6-(3-(6-((3R)-3-piperidinyloxy)-2-pyrazinyl)-1H-indazol-5-yl)-2-pyrazinamine]: the IC50 in assay [1] was 1 nM; in assay [2], over 15800 nM; in assay [3], 36 nM; in assay [4], 121 nM; in assay [5] it was 1 nM.
In the case of `O[C@H]1CCCN(c2cncc(-c3n[nH]c4ccc(-c5c(F)cccc5F)cc34)n2)C1` [Example 163, (3S)-1-(6-(5-(2,6-difluorophenyl)-1H-indazol-3-yl)-2-pyrazinyl)-3-piperidinol], the IC50 in assay [1] was 49 nM; in assay [2], over 31600 nM; in assay [3], 1630 nM; in assay [4], 969 nM; in assay [5] it was 58 nM.
For the compound `CN(c1cncc(-c2n[nH]c3ccc(-c4c(F)cccc4F)cc23)n1)C1CCCNC1` (stereo not shown) [Example 178, 6-(5-(2,6-difluorophenyl)-1H-indazol-3-yl)-N-methyl-N-3-piperidinyl-2-pyrazinamine], the IC50 in assay [1] came to 6 nM; in assay [2], 14300 nM; in assay [3], 582 nM; in assay [4], 61 nM; in assay [5] it was 6 nM.
With `CCNc1cncc(-c2n[nH]c3ccc(-c4c(F)cccc4F)cc23)n1` [Example 180, 6-(5-(2,6-difluorophenyl)-1H-indazol-3-yl)-N-ethyl-2-pyrazinamine], the IC50 is 81 nM in assay [1]; over 31600 nM in assay [2]; 2130 nM in assay [3]; 643 nM in assay [4]; 76 nM in assay [5].
As to `CC(C)Nc1cncc(-c2n[nH]c3ccc(-c4c(F)cccc4F)cc23)n1` [Example 182, 6-(5-(2,6-difluorophenyl)-1H-indazol-3-yl)-N-(1-methylethyl)-2-pyrazinamine], the IC50 in assay [1] was 49 nM; in assay [2], over 31600 nM; in assay [3], 2460 nM; in assay [4] it was 556 nM; in assay [5] it was 40 nM.
For `CC(C)(C)Nc1cncc(-c2n[nH]c3ccc(-c4c(F)cccc4F)cc23)n1` [Example 183, N-tert-butyl-6-(5-(2,6-difluorophenyl)-1H-indazol-3-yl)-2-pyrazinamine], the IC50 was 44 nM in assay [1]; over 31600 nM in assay [2]; 4260 nM in assay [3]; 679 nM in assay [4]; 44 nM in assay [5].
Consider `Fc1cccc(F)c1-c1ccc2[nH]nc(-c3cncc(Nc4ccccc4)n3)c2c1` [Example 184, 6-(5-(2,6-difluorophenyl)-1H-indazol-3-yl)-N-phenyl-2-pyrazinamine], for which the IC50 in assay [1] was 233 nM; in assay [2] it was over 31600 nM; in assay [3] it was over 31600 nM; in assay [4], 1040 nM; in assay [5], 139 nM.
With `Fc1cccc(F)c1-c1ccc2[nH]nc(-c3cncc(OC4CCNC4)n3)c2c1` (stereo not shown) [Example 187, 5-(2,6-difluorophenyl)-3-(6-(3-pyrrolidinyloxy)-2-pyrazinyl)-1H-indazole], the IC50 in assay [1] was determined as 22 nM; in assay [2], 24200 nM; in assay [3] it was 1830 nM; in assay [4], 131 nM; in assay [5], 50 nM.
With `Fc1cccc(F)c1-c1ccc2[nH]nc(-c3ccnc(O[C@@H]4CCCNC4)n3)c2c1` [Example 190, 5-(2,6-difluorophenyl)-3-(2-((3R)-3-piperidinyloxy)-4-pyrimidinyl)-1H-indazole], the IC50 turned out to be 36 nM in assay [1]; 18800 nM in assay [2]; 1220 nM in assay [3]; 223 nM in assay [4]; 24 nM in assay [5].
For the compound `NC1CCN(c2nccc(-c3n[nH]c4ccc(-c5c(F)cccc5F)cc34)n2)CC1` [Example 194, 1-(4-(5-(2,6-difluorophenyl)-1H-indazol-3-yl)-2-pyrimidinyl)-4-piperidinamine], the IC50 is 3 nM in assay [1]; over 31600 nM in assay [2]; 561 nM in assay [3]; 52 nM in assay [4]; 2 nM in assay [5].
For `C[C@H]1CCNC[C@@H]1Oc1cncc(-c2n[nH]c3ccc(-c4c(F)cccc4F)cc23)n1` [Example 195, 5-(2,6-difluorophenyl)-3-(6-(((3R,4S)-4-methyl-3-piperidinyl)oxy)-2-pyrazinyl)-1H-indazole], in that order: 7 nM, 7580 nM, 211 nM, 15 nM and 4 nM.
For `C[C@H]1CCNC[C@@H]1Oc1cncc(-c2n[nH]c3ccc(-c4c(F)cccc4F)cc23)n1` [Example 198, 5-(2,6-difluorophenyl)-3-(6-(((3R,4S)-4-methyl-3-piperidinyl)oxy)-2-pyrazinyl)-1H-indazole], the IC50 in assay [1] amounted to 5 nM; in assay [2], 5090 nM; in assay [3], 146 nM; in assay [4], 13 nM; in assay [5], 4 nM.
Consider `C[C@H]1CCNC[C@H]1Oc1cncc(-c2n[nH]c3ccc(-c4c(F)cccc4F)cc23)n1` [Example 199, 5-(2,6-difluorophenyl)-3-(6-(((3S,4S)-4-methyl-3-piperidinyl)oxy)-2-pyrazinyl)-1H-indazole], for which the IC50 in assay [1] is 4 nM; in assay [2] it was 3410 nM; in assay [3], 400 nM; in assay [4], 16 nM; in assay [5], 5 nM.
Regarding `N[C@H]1CCCN(c2cncc(-c3c[nH]c4ccc(-c5c(F)cccc5F)cc34)n2)C1` [Example 201, (3S)-1-(6-(5-(2,6-difluorophenyl)-1H-indol-3-yl)-2-pyrazinyl)-3-piperidinamine], the IC50 was 5 nM in assay [1]; over 31600 nM in assay [2]; 611 nM in assay [3]; 66 nM in assay [4]; 1 nM in assay [5].
